Measured values from ChEMBL document CHEMBL3046197, “Relation between Penetration Rates of Pesticides and Partition Coefficients in Topical Application to Spodoptera litura” (J Pestic Sci, 2001).

Legend:
Spodoptera litura [1] = assay: Drug uptake in Spodoptera litura assessed as surface residue level 0.2 ug/insect after 2 hr; format: ADME, organism-based; conditions: in vivo
Spodoptera litura [2] = assay: Drug uptake in Spodoptera litura assessed as surface residue level 0.2 ug/insect after 4 hr; format: ADME, organism-based; conditions: in vivo
[3] = Octanol-water partition coefficient, log P of the compound by shake-flask method; format: physicochemical
Spodoptera litura [4] = assay: Drug uptake in Spodoptera litura assessed as recovered drug level 0.2 ug/insect after 2 hr; format: ADME, organism-based; conditions: in vivo
Spodoptera litura [5] = assay: Drug uptake in Spodoptera litura assessed as recovered drug level 0.2 ug/insect after 4 hr; format: ADME, organism-based; conditions: in vivo
Spodoptera litura [6] = assay: Drug uptake in Spodoptera litura assessed as penetrated drug level 0.2 ug/insect after 2 hr; format: ADME, organism-based; conditions: in vivo
Spodoptera litura [7] = assay: Drug uptake in Spodoptera litura assessed as penetrated drug level 0.2 ug/insect after 4 hr; format: ADME, organism-based; conditions: in vivo
Spodoptera litura [8] = assay: Drug uptake in Spodoptera litura assessed as unchanged drug level 0.2 ug/insect after 2 hr; format: ADME, organism-based; conditions: in vivo
Spodoptera litura [9] = assay: Drug uptake in Spodoptera litura assessed as unchanged drug level 0.2 ug/insect after 1 hr; format: ADME, organism-based; conditions: in vivo
Spodoptera litura [10] = assay: Drug uptake in Spodoptera litura assessed as surface residue level 0.2 ug/insect after 6 hr; format: ADME, organism-based; conditions: in vivo
Spodoptera litura [11] = assay: Drug uptake in Spodoptera litura assessed as recovered drug level 0.2 ug/insect after 6 hr; format: ADME, organism-based; conditions: in vivo
Spodoptera litura [12] = assay: Drug uptake in Spodoptera litura assessed as recovered drug level 0.2 ug/insect after 1 hr; format: ADME, organism-based; conditions: in vivo
Spodoptera litura [13] = assay: Drug uptake in Spodoptera litura assessed as penetrated drug level 0.2 ug/insect after 6 hr; format: ADME, organism-based; conditions: in vivo
Spodoptera litura [14] = assay: Drug uptake in Spodoptera litura assessed as penetrated drug level 0.2 ug/insect after 1 hr; format: ADME, organism-based; conditions: in vivo
Spodoptera litura [15] = assay: Drug uptake in Spodoptera litura assessed as surface residue level 0.2 ug/insect after 1 hr; format: ADME, organism-based; conditions: in vivo
Spodoptera litura [16] = assay: Drug uptake in Spodoptera litura assessed as surface residue level 0.2 ug/insect after 16 hr; format: ADME, organism-based; conditions: in vivo, topical_or_ocular
Spodoptera litura [17] = assay: Drug uptake in Spodoptera litura assessed as surface residue level 0.2 ug/insect after 3 hr; format: ADME, organism-based; conditions: in vivo
Spodoptera litura [18] = assay: Drug uptake in Spodoptera litura assessed as recovered drug level 0.2 ug/insect after 16 hr; format: ADME, organism-based; conditions: in vivo
Spodoptera litura [19] = assay: Drug uptake in Spodoptera litura assessed as recovered drug level 0.2 ug/insect after 3 hr; format: ADME, organism-based; conditions: in vivo
Spodoptera litura [20] = assay: Drug uptake in Spodoptera litura assessed as penetrated drug level 0.2 ug/insect after 16 hr; format: ADME, organism-based; conditions: in vivo
Spodoptera litura [21] = assay: Drug uptake in Spodoptera litura assessed as penetrated drug level 0.2 ug/insect after 3 hr; format: ADME, organism-based; conditions: in vivo
Spodoptera litura [22] = assay: Drug uptake in Spodoptera litura assessed as unchanged drug level 0.2 ug/insect after 3 hr; format: ADME, organism-based; conditions: in vivo
Spodoptera litura [23] = assay: Drug uptake in Spodoptera litura assessed as surface residue level 0.2 ug/insect after 24 hr; format: ADME, organism-based; conditions: in vivo, topical_or_ocular
Spodoptera litura [24] = assay: Drug uptake in Spodoptera litura assessed as surface residue level 0.2 ug/insect after 8 hr; format: ADME, organism-based; conditions: in vivo
Spodoptera litura [25] = assay: Drug uptake in Spodoptera litura assessed as unchanged drug level 0.2 ug/insect after 8 hr; format: ADME, organism-based; conditions: in vivo
Spodoptera litura [26] = assay: Drug uptake in Spodoptera litura assessed as recovered drug level 0.2 ug/insect after 24 hr; format: ADME, organism-based; conditions: in vivo
Spodoptera litura [27] = assay: Drug uptake in Spodoptera litura assessed as penetrated drug level 0.2 ug/insect after 24 hr; format: ADME, organism-based; conditions: in vivo
Spodoptera litura [28] = assay: Drug uptake in Spodoptera litura assessed as unchanged drug level 0.2 ug/insect after 4 hr; format: ADME, organism-based; conditions: in vivo
Spodoptera litura [29] = assay: Drug uptake in Spodoptera litura assessed as surface residue level 0.2 ug/insect after 0.5 hr; format: ADME, organism-based; conditions: in vivo, topical_or_ocular
Spodoptera litura [30] = assay: Drug uptake in Spodoptera litura assessed as recovered drug level 0.2 ug/insect after 0.5 hr; format: ADME, organism-based; conditions: in vivo
Spodoptera litura [31] = assay: Drug uptake in Spodoptera litura assessed as penetrated drug level 0.2 ug/insect after 0.5 hr; format: ADME, organism-based; conditions: in vivo
Spodoptera litura [32] = assay: Drug uptake in Spodoptera litura assessed as unchanged drug level 0.2 ug/insect after 0.5 hr; format: ADME, organism-based; conditions: in vivo
Spodoptera litura [33] = assay: Drug uptake in Spodoptera litura assessed as recovered drug level 0.2 ug/insect after 8 hr; format: ADME, organism-based; conditions: in vivo
Spodoptera litura [34] = assay: Drug uptake in Spodoptera litura assessed as penetrated drug level 0.2 ug/insect after 8 hr; format: ADME, organism-based; conditions: in vivo

Structure (SMILES): CC1(C)C(C(=O)OC(C#N)c2cccc(Oc3ccccc3)c2)C1(C)C (centres undefined) [FENPROPATHRIN]
- Drug uptake (Spodoptera litura [1]): 68.8%
- Drug uptake (Spodoptera litura [2]): 69.2%
- logP [3]: 6
- Drug recovery (Spodoptera litura [4]): 90.8%
- Drug recovery (Spodoptera litura [5]): 82.3%
- Drug uptake (Spodoptera litura [6]): 22%
- Drug uptake (Spodoptera litura [7]): 13.1%
- Drug uptake (Spodoptera litura [8]): 66.5%

Structure (SMILES): COP(=S)(OC)Oc1ccc(C#N)cc1 [CYANOPHOS]
- Drug uptake (Spodoptera litura [9]): 34.3%
- Drug uptake (Spodoptera litura [10]): 8.1%
- logP [3]: 2.65
- Drug recovery (Spodoptera litura [11]): 80.9%
- Drug recovery (Spodoptera litura [12]): 76.6%
- Drug uptake (Spodoptera litura [13]): 72.8%
- Drug uptake (Spodoptera litura [14]): 39.2%
- Surface residue (Spodoptera litura [15]): 37.4%

Structure (SMILES): COP(=S)(OC)Oc1ccc([N+](=O)[O-])c(C)c1 [FENITROTHION]
- Drug uptake (Spodoptera litura [9]): 40.9%
- Drug uptake (Spodoptera litura [10]): 10.8%
- Drug recovery (Spodoptera litura [11]): 81.8%
- Drug recovery (Spodoptera litura [12]): 94.8%
- Drug uptake (Spodoptera litura [13]): 71%
- Drug uptake (Spodoptera litura [14]): 51.2%
- Surface residue (Spodoptera litura [15]): 43.6%

Structure (SMILES): CCOc1ccc(NC(=O)OC(C)C)cc1OCC [DIETHENOFENCARB]
- Drug uptake (Spodoptera litura [16]): 18.1%
- Drug uptake (Spodoptera litura [17]): 56.6%
- logP [3]: 3.02
- Drug recovery (Spodoptera litura [18]): 81.7%
- Drug recovery (Spodoptera litura [19]): 88.5%
- Drug uptake (Spodoptera litura [20]): 63.5%
- Drug uptake (Spodoptera litura [21]): 31.9%
- Drug uptake (Spodoptera litura [22]): 52.6%

Structure (SMILES): CC(C)(C)N(NC(=O)c1ccccc1)C(=O)c1ccccc1 [RH-5849]
- Drug uptake (Spodoptera litura [23]): 50.2%
- Drug uptake (Spodoptera litura [24]): 52.3%
- Drug recovery (Spodoptera litura [25]): 38.4%

Structure (SMILES): CC(COc1ccc(Oc2ccccc2)cc1)Oc1ccccn1 (centres undefined) [PYRIPROXYFEN]
- Drug uptake (Spodoptera litura [23]): 7.6%
- Drug uptake (Spodoptera litura [2]): 56.4%
- logP [3]: 5.31
- Drug recovery (Spodoptera litura [26]): 84%
- Drug recovery (Spodoptera litura [5]): 96.7%
- Drug uptake (Spodoptera litura [27]): 76.4%
- Drug uptake (Spodoptera litura [7]): 40.3%
- Drug uptake (Spodoptera litura [28]): 55.3%

Structure (SMILES): COP(=O)(OC)Oc1ccc([N+](=O)[O-])c(C)c1 [FENITROXON]
- Drug uptake (Spodoptera litura [17]): 25.3%
- Drug uptake (Spodoptera litura [29]): 44.9%
- Drug recovery (Spodoptera litura [19]): 87.8%
- Drug recovery (Spodoptera litura [30]): 96.4%
- Drug uptake (Spodoptera litura [21]): 62.4%
- Drug uptake (Spodoptera litura [31]): 51.5%
- Drug uptake (Spodoptera litura [32]): 42.7%

Structure (SMILES): CCOP(=S)(Oc1ccc(C#N)cc1)c1ccccc1 (centres undefined) [CYANOFENPHOS]
- Drug uptake (Spodoptera litura [24]): 11.3%
- Drug uptake (Spodoptera litura [17]): 39.9%
- Drug recovery (Spodoptera litura [33]): 96%
- Drug recovery (Spodoptera litura [19]): 96.4%
- Drug uptake (Spodoptera litura [34]): 84.6%
- Drug uptake (Spodoptera litura [21]): 56.5%
- Drug uptake (Spodoptera litura [22]): 37.4%

Structure (SMILES): COP(=O)(OC)Oc1ccc(C#N)cc1 [CYANOPHOS-OXON]
- Drug uptake (Spodoptera litura [29]): 34.5%
- logP [3]: 0.84
- Drug recovery (Spodoptera litura [30]): 89.9%
- Drug recovery (Spodoptera litura [12]): 96.7%
- Drug uptake (Spodoptera litura [31]): 55.4%
- Drug uptake (Spodoptera litura [14]): 65.5%
- Drug uptake (Spodoptera litura [32]): 29.3%
- Surface residue (Spodoptera litura [15]): 31.2%

Structure (SMILES): CC(C)=C[C@@H]1[C@@H](C(=O)OCN2C(=O)C3=C(CCCC3)C2=O)C1(C)C [(1R)-TRANS-TETRAMETHRIN]
- Drug uptake (Spodoptera litura [16]): 44.9%
- Drug uptake (Spodoptera litura [24]): 63.7%
- logP [3]: 4.73
- Drug recovery (Spodoptera litura [18]): 80.1%
- Drug recovery (Spodoptera litura [33]): 84.9%
- Drug uptake (Spodoptera litura [20]): 35.2%
- Drug uptake (Spodoptera litura [34]): 21.2%
- Drug uptake (Spodoptera litura [25]): 60.3%

Structure (SMILES): CCOP(=S)(OCC)Oc1ccc([N+](=O)[O-])cc1 [PARATHION]
- Drug uptake (Spodoptera litura [9]): 56.8%
- Drug uptake (Spodoptera litura [10]): 10.9%
- Drug recovery (Spodoptera litura [11]): 89.8%
- Drug recovery (Spodoptera litura [12]): 95.6%
- Drug uptake (Spodoptera litura [13]): 78.9%
- Drug uptake (Spodoptera litura [14]): 35%
- Surface residue (Spodoptera litura [15]): 60.6%
